Laboratory results: patent US20240261443A1, “COMPOUNDS AND COMPOSITIONS USEFUL AS RADIOTRACERS FOR IMAGING OF REACTIVE OXIDATIVE SPECIES” (Wake Forest University Health Sciences, priority 2019, published 2024)

Legend:
[1] = Ex vivo biodistribution in normal ICR mice; conditions: for blood uptake / kidney uptake / liver uptake: in %ID/g (unit assumed)
[2] = test system: SCC-61 and rSCC-61 cell lines; assay: MitoSOX fluorescence ROS assay, with or without SOD blocker; assay type: cell-based, human
Procedure: As a first-line tool to screen KS1 and KS2: SCC-61 has higher intracellular ROS than rSCC-61. MitoSOX is a mitochondrion-targeted dihydroethidium based derivative that primarily detects ROS (superoxide anion) produced within mitochondria. Mitosox assays without any ligands were used as controls. The two cell lines were treated with KS1, KS2 and ascorbate (10.0 μM) and incubated for an hour. MitoSOX (1.0 μM) in phenol red-free DMEM/F12 media was added and incubated for an additional 10 min. The cells were then washed with PBS and imaged in the same media.
In addition to testing KS1 with the MitoSOX assay, we compared our results with no ligand controls and ascorbate as a reference standard. The two cell lines were treated with KS1 and ascorbate (10.0 μM) and incubated for an hour. MitoSOX (1.0 μM) in phenol red-free DMEM/F12 media was added and incubated for an additional 10 min. The cells were then washed with PBS and imaged in the same media. Ligand specificity is commonly determined by pretreating the cells with high concentrations of blockers. Superoxide dismutase (SOD), an enzyme that selectively suppresses accumulation of ROS-superoxide peroxide anions, was added as blocker (1.0 mM) 60 min before the treatment of KS1 (Bielski et al., Chemistry of ascorbic acid radicals. in Ascorbic Acid: Chemistry, Metabolism, and Uses. Chapter. 1982; 4:81-100). Fluorescence was subsequently measured and its intensity was quantified in f.u (fluorescence units).
Ligand specificity is commonly determined by pretreating the cells with high concentrations of blockers. We used superoxide dismutase (SOD), an enzyme that selectively suppresses accumulation of ROS-superoxide peroxide anions (Bielski et al., Chemistry of ascorbic acid radicals. in Ascorbic Acid: Chemistry, Metabolism, and Uses. Chapter 1982, 4, 81-100). The same MitoSOX assay with KS1 and KS2 (10 μM) was performed by pretreating the SCC-61 cells with SOD (1.0 mM) for 60 min.

SCC-61 cell line (HNSCC) = assay: MTT cytotoxicity IC50 assay, SCC-61; assay type: cell-based, human; conditions: Homo sapiens, SCC-61, MTT
Procedure: (§1) The cells were seeded at density 5×10^3 cells/well. After 24 h pre-incubation period, cells were treated with 0.01 mM to 2.0 mM of freshly prepared KS1 and KS2 along with ascorbate (n=3) for 48 h. 0.2% of DMSO served as vehicle control. After 48 h, the solutions were removed from all plates and MTT assays performed following the published protocols. IC50 values are presented as mean±SD from at least three independent experiments.
(§2) There is growing evidence for a therapeutic role of ascorbate against several cancers (Creagan et al., Failure of High-Dose Vitamin C (Ascorbic Acid) Therapy to Benefit Patients with Advanced Cancer. New England Journal of Medicine 1979, 301 (13), 687-690; Chen et al., Pharmacologic ascorbic acid concentrations selectively kill cancer cells: action as a pro-drug to deliver hydrogen peroxide to tissues. Proceedings of the National Academy of Sciences of the United States of America 2005, 102 (38), 13604-13609; Prasad et al., High Doses of Multiple Antioxidant Vitamins: Essential Ingredients in Improving the Efficacy of Standard Cancer Therapy. Journal of the American College of Nutrition 1999, 18 (1), 13-25). Pharmacologic doses of ascorbate (oral and/or intravenous) could increase the effectiveness of cancer chemotherapy in many solid cancer therapies (López-Lizaro, Dual role of hydrogen peroxide in cancer: Possible relevance to cancer chemoprevention and therapy. Cancer Letters 2007, 252 (1), 1-8; Li et al., New Developments and Novel Therapeutic Perspectives for Vitamin C. The Journal of Nutrition 2007, 137 (10), 2171-2184; Klimant et al., Intravenous vitamin C in the supportive care of cancer patients: a review and rational approach. Current Oncology 2018, 25 (2), 139-148. The primary objective of this experiment was to determine the cytotoxic effects of KS1 at pharmacological concentrations. Cancer cell lines were selected based on their high ROS implications. […] These cell lines have been studied extensively with ascorbic acid treatments (Schoenfeld et al., O(2)(·−) and H(2)O(2)-Mediated Disruption of Fe Metabolism Causes the Differential Susceptibility of NSCLC and GBM Cancer Cells to Pharmacological Ascorbate. Cancer Cell 2017, 31 (4), 487-500.e8; Chen et al., Modulators of Redox Metabolism in Head and Neck Cancer. Antioxidants & Redox Signaling 2017, 29 (16), 1660-1690; Khandrika et al., Oxidative stress in prostate cancer. Cancer Lett 2009, 282 (2), 125-136.

PC3 cell line = assay: MTT cytotoxicity IC50 assay, PC3; assay type: cell-based, human; conditions: Homo sapiens
Procedure: as §1, §2

[3] = test system: SCC-61, G48, MD3-MB-231 and PC3 cancer cell lines; assay: MTT assay, potency versus ascorbate across patient-derived cancer cell lines; assay type: cell-based, human; conditions: Example 13; SCC-61, PC3, and MD3-MB-231 cells
Procedure: as §1
There is growing evidence for a therapeutic role of ascorbate against several cancers (Creagan et al., Failure of High-Dose Vitamin C (Ascorbic Acid) Therapy to Benefit Patients with Advanced Cancer. New England Journal of Medicine 1979, 301 (13), 687-690; Chen et al., Pharmacologic ascorbic acid concentrations selectively kill cancer cells: action as a pro-drug to deliver hydrogen peroxide to tissues. Proceedings of the National Academy of Sciences of the United States of America 2005, 102 (38), 13604-13609; Prasad et al., High Doses of Multiple Antioxidant Vitamins: Essential Ingredients in Improving the Efficacy of Standard Cancer Therapy. Journal of the American College of Nutrition 1999, 18 (1), 13-25). […]

SMILES | blood uptake ([1]; 5 min post injection) | kidney uptake ([1]; 5 min post injection) | liver uptake ([1]; 5 min post injection) | blood uptake ([1]; 120 min post injection) | kidney uptake ([1]; 120 min post injection) | liver uptake ([1]; 120 min post injection) | bone uptake ([1]; normal ICR mice) | brain uptake ([1]; normal ICR mice) | MitoSOX fluorescence in SCC-61 compared to rSCC-61 cells ([2]; 10.0 μM, 1 h incubation) | higher selectivity between the two cell lines compared to ascorbate selectivity ([2]; Example 4, SCC-61 vs rSCC-61, MitoSOX fluorescence) | higher differential selectivity between the high- and low-ROS cell lines compared to ascorbate ([2]; Example 5, SCC-61 vs rSCC-61, MitoSOX fluorescence) | fluorescent intensity of KS1-mitoSOX with SOD ([2]; SCC-61 cells, 10 μM, SOD (1.0 mM) pretreatment 60 min) | fluorescent intensity of KS1-mitoSOX ([2]; SCC-61 cells, 10 μM, without SOD) | decrease of fluorescent uptake by SOD pretreatment ([2]; SCC-61 cells, SOD (1.0 mM) for 60 min) | IC50 (SCC-61 cell line (HNSCC); Example 7, 48 h) | IC50 (SCC-61 cell line (HNSCC); Example 13) | IC50 (PC3 cell line; PC-3, Example 7, 48 h) | IC50 (PC3 cell line; PC-3, Example 13) | selectivity (potency) versus ascorbate [3]
O=C1O/C(=C/CCl)C(O)=C1OCc1ccc(OCC[18F])cc1 [[^18F]KS1] | 1.361±0.71 | 14.793±1.33 | 9.72±2.55 | 0.31±0.071 | 3.23±1.30 | 2.124±1.12 | No significant bone uptake | Poor brain uptake | – | – | – | – | – | – | – | – | – | – | –
O=C1O/C(=C/CCl)C(O)=C1OCc1ccc(OCCF)cc1 [KS1, (E)-5-(2-chloroethylidene)-3-(4-(2-fluoroethoxy)benzyloxy)-4-hydroxyfuran-2(5H)-one] | – | – | – | – | – | – | – | – | higher fluorescence | ~10 fold | ~2.2 fold | 1842 f.u | 3631 f.u | ~50% | 288 µM | 718 µM | 311 µM | 1010 µM | 1.6 to 2.5 fold
